The nature of data set [1]: Effect of strontium intake on serum hormone levels in healthy individual(s). Format: in vivo, human. How it is done:
When healthy individuals were given 7 mg strontium chloride per day, the PRL level increased within two weeks 50-80% from a normal base value. […]
The effect of strontium intake on selected physiological reactions was evaluated by administering strontium alone or together with the full dietary support program described in table 1 to four prostate cancer patients, P1-P4, and to one healthy individual. The results are shown in table 4, which also gives the normal values for the measured hormones.

Data set [2] has as its system prostate cancer (CaP). The experiment in a line: Strontium alone or with full dietary support program in prostate cancer patients: hormone/PSA levels and clinical course. The data set is classed as in vivo, human. How it is done:
In addition to the dietary biomodulating components prescribed (see Table 1), the patient ingested a daily amount of 7 mg of strontium oxide, contained in birch ash that they prepared at home and was taking continuously at a dose of about 8 g per day.
• 1. Oral administration of each (2-5 g/day) of respective L-amino acids: Arg, Asp, Glu, Gly, Lys and Ser in connection with meals. The amino acids are manufactured by Degussa Ag, Germany. • 2. […] Small physiologic amounts of vitamins: A, B, C, D, E, K, folic acid and lycopene. • 4. To improve lymphopoiesis and the immune defense of patients a diet containing prionfree neurogenic lipids (equivalent to approx. 50 g of brain) was recommended, (purchased and canned by Neurofood Ltd. Finland). • 5. All these dietary ingredients can be mixed together in yoghurt, forming a daily ration, using pre-packed pulvers. • 6. Dose-levels are adjusted based on clinical response as measured, and correlated to the patient's body weight.
The effect of strontium intake on selected physiological reactions was evaluated by administering strontium alone or together with the full dietary support program described in table 1 to four prostate cancer patients, P1-P4, and to one healthy individual.

For data set [3] the following is noted: long-lasting use for diagnostic purposes, i.v. dose up to 80 mg SrCl2; cited from earlier work.
[4] abbreviates: P0 without Sr for three weeks (after the Sr course).
[5] abbreviates: healthy individual P0, after Sr 7 mg, 14 days.
Setting [6] is: healthy individuals, 7 mg strontium chloride per day, two weeks.
The mark [7] stands for this setting: healthy persons, ingestion of strontium (in mg's).
The mark [8] stands for this setting: patients diagnosed with prostate cancer, administration of strontium.
Where [9] appears, read: laboratory pattern, orchiectomized patient P1 (No. 1), 7 mg strontium oxide daily plus dietary biomodulating components.
[10] abbreviates: patient P1, year 2003, 7 mg strontium oxide daily (birch ash) plus dietary biomodulating components.

Some results are limits rather than exact numbers.

For the molecule `[Cl-].[Cl-].[Sr+2]` [strontium chloride], in data set [1] (setting [4]), the DHEAS came out at 2.7 µmol/L, the FSH amounted to 11 IU/L, the PRL amounted to 337 mU/L and the PSA turned out to be 0.4 µg/L. The “serum DHEA” value in data set [1] (setting [4]) turned out to be 3.6 nmol/L. Besides, in data set [1] (setting [5]), the DHEAS is 2.3 µmol/L, the FSH is 13 IU/L, the PRL came out at 389 mU/L and the PSA was determined as 0.4 µg/L. Also, the “serum DHEA” value in data set [1] (setting [5]) stood at 9.8 nmol/L. Moreover, the FSH level result in data set [1] (healthy individuals, 7 mg strontium chloride per day) is listed as “can increase or remain on a level exceeding normal levels”. Also, in data set [1] (setting [6]), the “serum DHEA level” value is reported as “can show an increase in value” and the “serum DHEAS level” value is on record as “decreased”. The “serum prolactin (PRL) level increase” value in data set [1] (healthy individuals, 7 mg strontium chloride per day, within two weeks, from normal base value) was 50-80%. Further, in data set [1] (setting [7]), the PRL increase was over 50% and the “decrease in DHEAS” value is reported as about 40%. In data set [2] (setting [8]), the DHEAS level result is reported as “decrease”, the FSH level result is “increases” and the PSA level result is listed as “decrease”. In data set [2] (prostate cancer patient P2), this molecule registered a DHEAS of under 0.8 µmol/L, a PRL of 852 mU/L and a PSA of 12.6 µg/L. In data set [2] (prostate cancer patient P3 ±), this molecule returned a DHEAS of 2.5 µmol/L, an FSH of 12 IU/L, a PRL of 568 mU/L and a PSA of 12.7 µg/L. In addition, the “serum DHEA” value in data set [2] (prostate cancer patient P3 ±) is given as 4.3 nmol/L. In data set [2] (prostate cancer patient P4 ±), this molecule yielded a DHEAS of under 0.8 µmol/L, an FSH of 13 IU/L, a PRL of 1879 mU/L and a PSA of 24.0 µg/L. In addition, in data set [2] (prostate cancer patient P4 ±), the “serum DHEA” value worked out at 2.4 nmol/L. Moreover, the harmful side effects result in data set [3] was “No harmful therapeutic side effects”.
Regarding `[O-2].[Sr+2]` [strontium oxide], in data set [2] (setting [9]), the Activin lay within 330 to 500 pg/mL, the DHEA was under 2.0 nmol/L, the DHEAS was under 0.8 µmol/L and the Inhibin is under 7.8 pg/mL. For the same molecule, in data set [2] (setting [9]), the PRL was 15-95 mU/L, the PSA was under 0.1 µg/L, the SHBG lay within 58 to 61 nmol/L and the Testost amounted to 1.0 nmol/L. Also, the “time until bone-metastases disappeared” value in data set [2] (patient P1, multiple bone-metastases) is on record as “four”. Moreover, in data set [2] (patient P1, multiple bone-metastases, from beginning of treatment), the “time until bone-pain subsided” value is reported as 6 months. For the same molecule, in data set [2] (setting [10]), the DHEA value entry was “below 2.0”, the FSH level entry was “about 48 IU/l” and the “prolactin (PRL) value” was “about 97 mU/l”. Moreover, the “serum DHEAS level” value in data set [2] (patient P1, year 2003, 7 mg strontium oxide daily (birch ash) plus dietary biomodulating components, below detectable limit) is on record as under 0.8. The clinical condition result in data set [2] (patient P1, year 2003, treatment since 1990) is “excellent clinical condition”.

(Values after patent publication US20100074968A1, “AGENT AND METHOD FOR TREATING CANCER COMPRISING STRONTIUM, AMINO ACID(S) AND MINERAL AGENT(S)” (HELSINGFORS INSTITUTION FÖR BIOMMUNTERAPI AB., priority 2003, published 2010).)
